Key:
TNF-receptor = TNF-receptor binding assay: binding of [125 I]-TNF to intact HL 60 cells; settings: [125 I]-TNF 700pM, 2 hours at room temperature
Description: An in-vitro binding assay, based upon the measurement of binding of [^125 I]-TNF to intact cells, was used to measure the TNF/vinigrol interaction. The assay is similar to that of Imamura et al, J. Biol. Chem, 263, 10247-10253 (1988). More particularly, HL 60 cells (ATCC CCL 240) were grown in RPMI 1640 medium containing 10% foetal calf serum (FCS) and 1mM glutamine to a density of 1×10^6 /ml and harvested by centrifugation at 150g for 10 minutes. Cells were resuspended to a density of 2×10^7 /ml in RPMI 1640 containing 1% bovine serum albumin. [^125 I]-TNF was diluted to 2.1nM in the above buffer containing 0.6% sodium azide. Non-specific binding was estimated by measuring the binding in the presence of a 100 fold excess of unlabelled TNF. [^125 I]-TNF, final concentration 700pM, vinigrol at the stated concentration and cells at a density of 5×10^6 /ml were incubated in the above buffer for 2 hours at room temperature. The reaction was terminated by filtering onto a LKB filter mat (1205-401) followed by extensive washing with phosphate-buffered saline: The filter mat was counted for radioactivity to determine the quantity of bound [^125 I)-TNF.

L929 cells = test: cells; type: cell-based; settings: Mus musculus, L929, read-out: Inhibition of TNF-induced cytotoxicity
Description: (§1) TNF causes lysis at low concentrations in sensitive cell lines. A cell line, known to be sensitive to TNF, was challenged with the cytokine in the presence of vinigrol and the reduction in cell mortality (as measured by cell staining) quantified in a manner similar to the method of Matthews, Immunology, 48, 321 (1982). A measurement of the cytotoxicity of vinigrol at the various concentrations was also carried out. L929 cells (4×10^4 /well) were incubated in RPMI 1640 medium containing 10ng/ml TNF, 0.05% lactalbumin hydrolysate and 1μg/ml actinomycin D plus the stated concentration of vinigrol overnight at […]. Cells were washed, fixed with methanol, stained with crystal violet and the cell density quantified by measuring absorbance at 590nm. The cytotoxicity of the samples was determined using the above method but excluding the TNF, in which experiments cell death would be due to the added vinigrol.

in vitro = type: cell-based; settings: mouse, l929 cells
Description: as §1

CC(C)C1CCC(C)C2CCC(C)C3(O)C1C=C(CO)C(O)C23 (stereo not drawn) [Vinigrol]
Inhibition of [125 I]-TNF-binding (TNF-receptor; vinigrol 3.1 μM): 8%
Inhibition of [125 I]-TNF-binding (TNF-receptor; vinigrol 31 μM): 12%
Inhibition of [125 I]-TNF-binding (TNF-receptor; vinigrol 310 μM): 100%
inhibition at 3.1 µM (L929 cells): 91%
inhibition at 15.5 µM (L929 cells): 100%
inhibition at 77.5 µM (L929 cells): 100%
cytotoxicity at 3.1 µM (in vitro): 30%
cytotoxicity at 15.5 µM (in vitro): 0%
cytotoxicity at 77.5 µM (in vitro): 7%

Reference: patent US5306732A, “Tumor necrosis factor antagonist” (Xenova Limited, priority 1989, dated 1994)
